Data as given in patent US9593149B2, “Amylin and calcitonin receptor agonist” (Novo Nordisk A/S, priority 2014, dated 2017).
Values after ≈ are worked out from the molar mass of the structure shown. Numbered stars: 1 amine (or outer) side, 2 acyl side, 3 side chain; on linkers, the order of the positions; unused ones are H or OH. Peptide text beside a SMILES is read from it. * marks the point of attachment. C20 diacid = O=C(O)CCCCCCCCCCCCCCCCCCC(=O)*; C18 diacid = O=C(O)CCCCCCCCCCCCCCCCC(=O)*; γGlu = O=C(O)[C@H](CCC(=O)[*:2])N[*:1]

Test: Assay (IV) determination of solubility
Type: physicochemical
Experimental: Assay (IV)—Determination of Solubility
The mimylin peptide was dissolved in water at ˜500 nmol/ml and mixed 1:1 with a series of buffers (100 mM glycylglycine pH 3.0, 100 mM glycylglycine pH 4.0, 100 mM glycylglycine pH 5.0, 100 mM bistrispropane pH 6.0, 100 mM bistrispropane pH 6.5, 100 mM bistrispropane pH 7.0, 100 mM bistrispropane pH 7.5, 100 mM bistrispropane pH 8.0).

| Solubility (pH 3.0) | Solubility (pH 4.0) | Solubility (pH 5.0) | Solubility (pH 6.0) | Solubility (pH 6.5) | Solubility (pH 7.0) | Solubility (pH 7.5) | Solubility (pH 8.0) | solubility at 18 h (pH 5.0) [µM] | Structure (SMILES) |
| --- | --- | --- | --- | --- | --- | --- | --- | --- | --- |
| ≧200 μM | ≧200 μM | ≧200 μM | ≧200 μM | ≧200 μM | ≧200 μM | ≧200 μM | ≧200 μM | – | CC(C)C[C@H](NC(=O)[C@H](C)NC(=O)[C@H](C)NC(=O)[C@@H](NC(=O)[C@H](CO)NC(=O)[C@H](CC(C)C)NC(=O)[C@H](CCC(=O)O)NC(=O)[C@H](CO)NC(=O)[C@H](C)NC(=O)CC[C@H](NC(=O)CCCCCCCCCCCCCCCCC(=O)O)C(=O)O)[C@@H](C)O)C(=O)NCC(=O)N[C@@H](CCCNC(=N)N)C(=O)N[C@@H](CC(C)C)C(=O)N[C@@H](CO)C(=O)N[C@@H](C)C(=O)N[C@@H](CCC(=O)O)C(=O)N[C@@H](CC(C)C)C(=O)N[C@@H](Cc1cnc[nH]1)C(=O)N[C@@H](CCC(=O)O)C(=O)N[C@@H](CC(C)C)C(=O)N[C@@H](C)C(=O)N[C@H](C(=O)N[C@@H](CC(C)C)C(=O)N1CCC[C@H]1C(=O)N[C@@H](CCCNC(=N)N)C(=O)N[C@H](C(=O)N[C@@H](CCC(=O)O)C(=O)N[C@H](C(=O)NCC(=O)N[C@@H](CO)C(=O)N[C@@H](CCC(=O)O)C(=O)N[C@@H](CO)C(=O)N1CCC[C@H]1C(N)=O)[C@@H](C)O)[C@@H](C)O)[C@@H](C)O [compound 23, [N-terminal(C18 diacid-gGlu), des1, 30S]mimylin] ({C18 diacid-γGlu}-ASELSTAALGRLSAELHELATLPRTETGSESP-NH2) |
| ≧200 μM | ≧200 μM | ≧200 μM | ≧200 μM | ≧200 μM | ≧200 μM | ≧200 μM | ≧200 μM | – | CC(C)C[C@H](NC(=O)[C@H](C)NC(=O)[C@H](C)NC(=O)[C@@H](NC(=O)[C@H](CO)NC(=O)[C@H](CC(C)C)NC(=O)[C@H](CCC(=O)O)NC(=O)[C@H](CO)NC(=O)[C@H](C)NC(=O)[C@H](C)NC(=O)[C@H](CCC(=O)O)NC(=O)CC[C@H](NC(=O)CCCCCCCCCCCCCCCCCCC(=O)O)C(=O)O)[C@@H](C)O)C(=O)NCC(=O)N[C@@H](CCCNC(=N)N)C(=O)N[C@@H](CC(C)C)C(=O)N[C@@H](CO)C(=O)N[C@@H](C)C(=O)N[C@@H](CCC(=O)O)C(=O)N[C@@H](CC(C)C)C(=O)N[C@@H](Cc1cnc[nH]1)C(=O)N[C@@H](CCC(=O)O)C(=O)N[C@@H](CC(C)C)C(=O)N[C@@H](C)C(=O)N[C@H](C(=O)N[C@@H](Cc1ccc(O)cc1)C(=O)N1CCC[C@H]1C(=O)N[C@@H](CCCNC(=N)N)C(=O)N[C@H](C(=O)N[C@@H](CCC(=O)O)C(=O)N[C@H](C(=O)NCC(=O)N[C@@H](CO)C(=O)NCC(=O)N[C@@H](CO)C(=O)N1CCC[C@H]1C(N)=O)[C@@H](C)O)[C@@H](C)O)[C@@H](C)O [compound 83, [N-terminal(C20 diacid-gGlu), −1E, 1A, 23Y, 30S, 31G]mimylin] ({C20 diacid-γGlu}-EAASELSTAALGRLSAELHELATYPRTETGSGSP-NH2) |

The next lines start with the molecule.

| Structure (SMILES) | Solubility (pH 3.0) | Solubility (pH 4.0) | Solubility (pH 5.0) | Solubility (pH 6.0) | Solubility (pH 6.5) | Solubility (pH 7.0) | Solubility (pH 7.5) | Solubility (pH 8.0) | solubility at 18 h (pH 5.0) [µM] |
| --- | --- | --- | --- | --- | --- | --- | --- | --- | --- |
| CC(C)C[C@H](NC(=O)[C@H](CCC(=O)O)NC(=O)[C@H](Cc1cnc[nH]1)NC(=O)[C@H](CC(C)C)NC(=O)[C@H](CCC(=O)O)NC(=O)[C@H](C)NC(=O)[C@H](CO)NC(=O)[C@H](CC(C)C)NC(=O)[C@H](CCCNC(=N)N)NC(=O)CNC(=O)[C@H](CC(C)C)NC(=O)[C@@H](NC(=O)[C@H](C)NC(=O)[C@@H](NC(=O)[C@H](CO)NC(=O)[C@H](CC(C)C)NC(=O)[C@H](CCC(=O)O)NC(=O)[C@H](CO)NC(=O)[C@@H]1CCCN1C(=O)[C@H](CCC(=O)O)NC(=O)CCCCCCCCCCCCCCCCC(=O)O)[C@@H](C)O)C(C)C)C(=O)N[C@@H](C)C(=O)N[C@H](C(=O)N[C@@H](CC(C)C)C(=O)N1CCC[C@H]1C(=O)N[C@@H](CCCNC(=N)N)C(=O)N[C@H](C(=O)N[C@@H](CCC(=O)O)C(=O)N[C@H](C(=O)NCC(=O)N1CCC[C@H]1C(=O)N[C@@H](CCC(=O)O)C(=O)N[C@@H](CO)C(=O)N1CCC[C@H]1C(N)=O)[C@@H](C)O)[C@@H](C)O)[C@@H](C)O [compound 28, [N-terminal(C18 diacid), 2P, 9V]mimylin] ({C18 diacid}-EPSELSTAVLGRLSAELHELATLPRTETGPESP-NH2) | ≧200 μM | ≧200 μM | ≧200 μM | ≧200 μM | ≧200 μM | ≧200 μM | ≧200 μM | ≧200 μM | – |
| CC[C@H](C)[C@H](NC(=O)[C@H](CCC(=O)O)NC(=O)[C@H](C)NC(=O)[C@H](CO)NC(=O)[C@H](CC(C)C)NC(=O)[C@H](CCCNC(=N)N)NC(=O)CNC(=O)[C@H](CC(C)C)NC(=O)[C@H](C)NC(=O)[C@H](C)NC(=O)[C@@H](NC(=O)[C@H](CO)NC(=O)[C@H](CC(C)C)NC(=O)[C@H](CCC(=O)O)NC(=O)[C@H](CO)NC(=O)[C@H](C)NC(=O)[C@H](CCC(=O)O)NC(=O)CCCCCCCCCCCCCCCCC(=O)O)[C@@H](C)O)C(=O)N[C@@H](Cc1cnc[nH]1)C(=O)N[C@@H](CCC(=O)O)C(=O)N[C@@H](CC(C)C)C(=O)N[C@@H](C)C(=O)N[C@H](C(=O)N[C@@H](CC(C)C)C(=O)N1CCC[C@H]1C(=O)N[C@@H](CCCNC(=N)N)C(=O)N[C@H](C(=O)N[C@@H](CCC(=O)O)C(=O)N[C@H](C(=O)NCC(=O)N1CCC[C@H]1C(=O)N[C@@H](CCC(=O)O)C(=O)N[C@@H](CO)C(=O)N1CCC[C@H]1C(N)=O)[C@@H](C)O)[C@@H](C)O)[C@@H](C)O [compound 11, [N-terminal(C18 diacid), 17I]mimylin] ({C18 diacid}-EASELSTAALGRLSAEIHELATLPRTETGPESP-NH2) | ≧200 μM | ≧200 μM | ≧200 μM | ≧200 μM | ≧200 μM | ≧200 μM | ≧200 μM | ≧200 μM | – |
| CC(C)C[C@H](NC(=O)CNC(=O)[C@H](CO)NC(=O)[C@H](C)NC(=O)CC[C@H](NC(=O)CCCCCCCCCCCCCCCCCCC(=O)O)C(=O)O)C(=O)N[C@@H](CO)C(=O)N[C@H](C(=O)N[C@@H](C)C(=O)N[C@H](C(=O)N[C@@H](CC(C)C)C(=O)NCC(=O)N[C@@H](CCCNC(=N)N)C(=O)N[C@@H](CC(C)C)C(=O)N[C@@H](CO)C(=O)N[C@@H](CCC(N)=O)C(=O)N[C@@H](CCC(=O)O)C(=O)N[C@@H](CC(C)C)C(=O)N[C@@H](Cc1cnc[nH]1)C(=O)N[C@@H](CCC(=O)O)C(=O)N[C@@H](CC(C)C)C(=O)N[C@@H](CCC(N)=O)C(=O)N[C@H](C(=O)N[C@@H](Cc1ccc(O)cc1)C(=O)N1CCC[C@H]1C(=O)N[C@@H](CCCNC(=N)N)C(=O)N[C@H](C(=O)N[C@@H](CCC(=O)O)C(=O)N[C@H](C(=O)NCC(=O)N[C@@H](CO)C(=O)NCC(=O)N[C@H](C(=O)N[C@@H](Cc1ccc(O)cc1)C(N)=O)[C@@H](C)O)[C@@H](C)O)[C@@H](C)O)[C@@H](C)O)[C@@H](C)O)[C@@H](C)O [compound 124, [N-terminal(C20 diacid-gGlu), des1, 4G, 9T, 15Q, 21Q, 23Y, 30S, 31G, 32T, 33Y]mimylin] ({C20 diacid-γGlu}-ASGLSTATLGRLSQELHELQTYPRTETGSGTY-NH2) | ≧200 μM | ≧200 μM | – | ≧200 μM | ≧200 μM | ≧200 μM | ≧200 μM | ≧200 μM | 61 (≈ 237 µg/mL) |
